Measurements from US10590113B2, “6-hydroxy-4-oxo-1,4-dihydropyrimidine-5-carboxamides as APJ agonists” (priority 2016, dated 2020).

These compounds were tested against T1, human APJ receptor (Homo sapiens, UniProt P35414) (assay: Intracellular cAMP Accumulation Assay (APJ hcAMP, HTRF)). Settings: human APJ, cAMP accumulation; potency range class; read-out: hAPJ cAMP EC50 Potency range.
T1 construct: expressed in transfected cells; host or cells: HEK293
T1 sequence (P35414 1-380): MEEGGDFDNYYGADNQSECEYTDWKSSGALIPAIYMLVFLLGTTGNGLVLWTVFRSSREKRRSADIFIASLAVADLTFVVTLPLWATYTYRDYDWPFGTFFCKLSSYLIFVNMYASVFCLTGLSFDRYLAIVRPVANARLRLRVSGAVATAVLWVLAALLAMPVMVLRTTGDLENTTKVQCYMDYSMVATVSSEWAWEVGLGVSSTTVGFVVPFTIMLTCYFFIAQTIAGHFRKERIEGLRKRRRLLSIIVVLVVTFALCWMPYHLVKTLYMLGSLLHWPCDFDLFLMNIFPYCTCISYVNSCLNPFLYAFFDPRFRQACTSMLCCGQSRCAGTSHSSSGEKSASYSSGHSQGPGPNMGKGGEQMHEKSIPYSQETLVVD
Type: cell-based
Outline: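 Stably transfected HEK293 cells (5,000/well) incubated 30 min at room temperature with serially diluted compound, […] and 2 μM forskolin. cAMP measured by HTRF after 60 min with detection reagents, quantified against a cAMP standard curve; EC50 from variable-slope sigmoidal fit of inhibition of forskolin-stimulated cAMP.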
In the case of `CCc1cccc(CC)c1-n1c(COC(C)C)nc(=O)c(C(=O)N2CCC(c3ccncc3)C2)c1O` (single isomer, unassigned) [Example 221, 1-(2,6-diethylphenyl)-6-hydroxy-2-[(propan-2-yloxy)methyl]-5-[3-(pyridin-4-yl)pyrrolidine-1-carbonyl]-1,4-dihydropyrimidin-4-one], the EC50 is reported as 10 to 100 nM.
`COc1cccc(OC)c1-n1c(-c2ccc(F)cc2)nc(=O)c(C(=O)N2CCC(c3ccc(Cl)cc3)C2)c1O` (single isomer, unassigned) [Example 223] showed an EC50 of 10 to 100 nM.
In the case of `COc1cccc(OC)c1-n1c(-c2ccc(F)cc2)nc(=O)c(C(=O)N2CCC(c3ccncc3)C2)c1O` (single isomer, unassigned) [Example 224, 1-(2,6-dimethoxyphenyl)-2-(4-fluorophenyl)-6-hydroxy-5-[3-(pyridin-4-yl)pyrrolidine-1-carbonyl]-1,4-dihydropyrimidin-4-one], the EC50 is reported as 10 to 100 nM.

Same assay, conditions: human APJ, intracellular cAMP accumulation; read-out: hAPJ cAMP EC50 Potency range
With `CC[C@@H](c1cc(F)cc(F)c1)n1c(-c2nc(C)cs2)nc(=O)c(C(=O)N2CCC(c3ccccc3OC)C2)c1O` (single isomer, unassigned) [Example 207] the EC50 was 0.01 to 10 nM.
With `CC[C@@H](c1cc(F)cc(F)c1)n1c(-c2nc(C)cs2)nc(=O)c(C(=O)N2CCC(c3ccccc3F)C2)c1O` (single isomer, unassigned) [Example 208] the EC50 was 0.01 to 10 nM.
`CC[C@@H](c1cc(F)cc(F)c1)n1c(-c2nc(C)cs2)nc(=O)c(C(=O)N2CCC(c3ccc(Cl)cn3)C2)c1O` (single isomer, unassigned) [Example 209] was tested, and the EC50 was 0.01 to 10 nM.
With `CC[C@@H](c1cc(F)cc(F)c1)n1c(-c2nc(C)cs2)nc(=O)c(C(=O)N2CCC(c3ncc(F)cc3F)C2)c1O` (single isomer, unassigned) [Example 210] the EC50 was 0.01 to 10 nM.
`CC[C@@H](c1cc(F)cc(F)c1)n1c(-c2nc(C)cs2)nc(=O)c(C(=O)N2CCC(c3ccc(F)cc3)C2)c1O` (single isomer, unassigned) [Example 211] showed an EC50 of 0.01 to 10 nM.
`CC[C@@H](c1cc(F)cc(F)c1)n1c(-c2ccn(CC)n2)nc(=O)c(C(=O)N2CCC(c3ncccc3F)C2)c1O` (single isomer, unassigned) [Example 212] gave an EC50 of 0.01 to 10 nM.
Work on `CC[C@@H](c1cc(F)cc(F)c1)n1c(-c2ccn(CC)n2)nc(=O)c(C(=O)N2CCC(c3ccc(Cl)cn3)C2)c1O` (single isomer, unassigned) [Example 213] yielded an EC50 of 0.01 to 10 nM.
With `CC[C@@H](c1cc(F)cc(F)c1)n1c(-c2ccn(CC)n2)nc(=O)c(C(=O)N2CCC(c3ncc(Cl)cc3F)C2)c1O` (single isomer, unassigned) [Example 214] the EC50 was 0.01 to 10 nM.
`CC[C@@H](c1cc(F)cc(F)c1)n1c(-c2ccn(CC)n2)nc(=O)c(C(=O)N2CCC(c3ncc(F)cc3F)C2)c1O` (single isomer, unassigned) [Example 215] gave an EC50 of 0.01 to 10 nM.
In the case of `CC[C@@H](c1cc(F)cc(F)c1)n1c(-c2ccn(CC)n2)nc(=O)c(C(=O)N2CCC(c3ccc(F)cn3)C2)c1O` (single isomer, unassigned) [Example 216], the EC50 is reported as 0.01 to 10 nM.
`CC[C@@H](c1cc(F)cc(F)c1)n1c(-c2cnn(C)c2)nc(=O)c(C(=O)N2CCC(c3ncc(F)cc3F)C2)c1O` (single isomer, unassigned) [Example 217] gave an EC50 of 0.01 to 10 nM.
`CC[C@@H](c1cc(F)cc(F)c1)n1c(-c2cnn(C)c2)nc(=O)c(C(=O)N2CCC(c3ccc(Cl)cn3)C2)c1O` (single isomer, unassigned) [Example 218] was tested, and the EC50 was 0.01 to 10 nM.
With `CC[C@@H](c1cc(F)cc(F)c1)n1c(-c2cnn(C)c2)nc(=O)c(C(=O)N2CCC(c3ncccc3F)C2)c1O` (single isomer, unassigned) [Example 219] the EC50 was 0.01 to 10 nM.
In the case of `CC[C@@H](c1cc(F)cc(F)c1)n1c(-c2cnn(C)c2)nc(=O)c(C(=O)N2CCC(c3ccc(F)cn3)C2)c1O` (single isomer, unassigned) [Example 220], the EC50 is reported as 0.01 to 10 nM.
